From patent publication US9717748B2, “Compositions and methods for treating an infection” (CMPD LICENSING, LLC, priority 2015, dated 2017)

Columns and labels:
Bacteroides fragilis = assay: Expected efficacy of antibiotic agents; details: Gram: anaer
Clostridium difficile = assay: Expected efficacy of antibiotic agents; details: Gram: anaer
Chlamydia pneumoniae = assay: Expected efficacy of antibiotic agents; details: Gram: n/a
Chlamydia psittaci = details: Gram: n/a
Chlamydia trachomatis = assay: Expected efficacy of antibiotic agents; details: Gram: n/a
Mycoplasma pneumoniae = assay: Expected efficacy of antibiotic agents; details: Gram: n/a
Acinetobacter baumannii = assay: Expected efficacy of antibiotic agents; details: Gram: neg
[1] = test system: Acinetobacter calcoaceticus; assay: Expected efficacy of antibiotic agents; details: Gram: neg
Acinetobacter lwoffii = assay: Expected efficacy of antibiotic agents; details: Gram: neg
Bordetella pertussis = assay: Expected efficacy of antibiotic agents; details: Gram: neg
Campylobacter jejuni = assay: Expected efficacy of antibiotic agents; details: Gram: neg
Citrobacter freundii = assay: Expected efficacy of antibiotic agents; details: Gram: neg
Enterobacter cloacae = assay: Expected efficacy of antibiotic agents; details: Gram: neg
Enterobacter sakazakii = assay: Expected efficacy of antibiotic agents; details: Gram: neg
Francisella tularensis = details: Gram: neg
Haemophilus ducreyi = assay: Expected efficacy of antibiotic agents; details: Gram: neg
[2] = test system: Haemophilus parainfluenzae; assay: Expected efficacy of antibiotic agents; details: Gram: neg
[3] = test system: Klebsiella (Calymmato-bacterium) granulomatis; assay: Expected efficacy of antibiotic agents; details: Gram: neg
Klebsiella pneumoniae = assay: Expected efficacy of antibiotic agents; details: Gram: neg
Legionella pneumophila = details: Gram: neg
Moraxella catarrhalis = assay: Expected efficacy of antibiotic agents; details: Gram: neg
Neisseria gonorrhoeae = assay: Expected efficacy of antibiotic agents; details: Gram: neg
Proteus mirabilis = assay: Expected efficacy of antibiotic agents; details: Gram: neg
Providencia rettgeri = assay: Expected efficacy of antibiotic agents; details: Gram: neg
Providencia stuartii = assay: Expected efficacy of antibiotic agents; details: Gram: neg
Pseudomonas aeruginosa = assay: Expected efficacy of antibiotic agents; details: Gram: neg
Rickettsiae = details: Gram: neg
Salmonella typhi = assay: Expected efficacy of antibiotic agents; details: Gram: neg
Shigella dysenteriae = assay: Expected efficacy of antibiotic agents; details: Gram: neg
Shigella flexneri = assay: Expected efficacy of antibiotic agents; details: Gram: neg
Shigella sonnei = assay: Expected efficacy of antibiotic agents; details: Gram: neg
Vibrio cholerae = assay: Expected efficacy of antibiotic agents; details: Gram: neg
Yersinia pestis = details: Gram: neg
Corynebacterium jeikeium = assay: Expected efficacy of antibiotic agents; details: Gram: pos
[4] = test system: Corynebacterium urealyticum; assay: Expected efficacy of antibiotic agents; details: Gram: pos
Diphtheroids = assay: Expected efficacy of antibiotic agents; details: Gram: pos
Enterococcus faecalis = assay: Expected efficacy of antibiotic agents; details: Gram: pos
Enterococcus faecium = assay: Expected efficacy of antibiotic agents; details: Gram: pos
[5] = test system: Methicillin resistant staphaureus (MRSA); assay: Expected efficacy of antibiotic agents; details: Gram: pos
Peptostreptococcus = assay: Expected efficacy of antibiotic agents; details: Gram: pos
[6] = test system: Staphylococcus aureus (MSSA); assay: Expected efficacy of antibiotic agents; details: Gram: pos
[7] = test system: Staphylococcus epidermidis; assay: Expected efficacy of antibiotic agents; details: Gram: pos
Streptococcus agalactiae = assay: Expected efficacy of antibiotic agents; details: Gram: pos
Streptococcus pyogenes = assay: Expected efficacy of antibiotic agents; details: Gram: pos
[8] = test system: Viridans group streptococci; assay: Expected efficacy of antibiotic agents; details: Gram: pos

## CO/N=C(\C(=O)N[C@@H]1C(=O)N2C(C(=O)O)=C(CSc3nc(=O)c(=O)[nH]n3C)CS[C@H]12)c1csc(N)n1 [Ceftriaxone]
Bacteroides fragilis
  Expected efficacy against Bacteroides fragilis: yes
Clostridium difficile
  Expected efficacy against Clostridium difficile: no
Chlamydia pneumoniae
  Expected efficacy against Chlamydia pneumoniae: no
Chlamydia psittaci
  Expected efficacy against Chlamydia psittaci: no
Chlamydia trachomatis
  Expected efficacy against Chlamydia trachomatis: no
Mycoplasma pneumoniae
  Expected efficacy against Mycoplasma pneumoniae: no
Acinetobacter baumannii
  Expected efficacy against Acinetobacter baumannii: no
[1]
  Expected efficacy against Acinetobacter calcoaceticus: no
Acinetobacter lwoffii
  Expected efficacy against Acinetobacter lwoffii: no
Bordetella pertussis
  Expected efficacy against Bordetella pertussis: no
Campylobacter jejuni
  Expected efficacy against Campylobacter jejuni: no
Citrobacter freundii
  Expected efficacy against Citrobacter freundii: yes
Enterobacter cloacae
  Expected efficacy against Enterobacter cloacae: yes
Enterobacter sakazakii
  Expected efficacy against Enterobacter sakazakii: yes
Francisella tularensis
  Expected efficacy against Francisella tularensis: no
Haemophilus ducreyi
  Expected efficacy against Haemophilus ducreyi: yes
[2]
  Expected efficacy against Haemophilus parainfluenzae: yes
[3]
  Expected efficacy against Klebsiella (Calymmato-bacterium) granulomatis: yes
Klebsiella pneumoniae
  Expected efficacy against Klebsiella pneumoniae: yes
Legionella pneumophila
  Expected efficacy against Legionella pneumophila: no
Moraxella catarrhalis
  Expected efficacy against Moraxella catarrhalis: yes
Neisseria gonorrhoeae
  Expected efficacy against Neisseria gonorrhoeae: yes
Proteus mirabilis
  Expected efficacy against Proteus mirabilis: yes
Providencia rettgeri
  Expected efficacy against Providencia rettgeri: yes
Providencia stuartii
  Expected efficacy against Providencia stuartii: yes
Pseudomonas aeruginosa
  Expected efficacy against Pseudomonas aeruginosa: no
Rickettsiae
  Expected efficacy against Rickettsiae: no
Salmonella typhi
  Expected efficacy against Salmonella typhi: yes
Shigella dysenteriae
  Expected efficacy against Shigella dysenteriae: yes
Shigella flexneri
  Expected efficacy against Shigella flexneri: yes
Shigella sonnei
  Expected efficacy against Shigella sonnei: yes
Vibrio cholerae
  Expected efficacy against Vibrio cholerae: no
Yersinia pestis
  Expected efficacy against Yersinia pestis: no
Corynebacterium jeikeium
  Expected efficacy against Corynebacterium jeikeium: no
[4]
  Expected efficacy against Corynebacterium urealyticum: no
Diphtheroids
  Expected efficacy against Diphtheroids: no
Enterococcus faecalis
  Expected efficacy against Enterococcus faecalis: no
Enterococcus faecium
  Expected efficacy against Enterococcus faecium: no
[5]
  Expected efficacy against Methicillin resistant staphaureus (MRSA): no
Peptostreptococcus
  Expected efficacy against Peptostreptococcus: yes
[6]
  Expected efficacy against Staphylococcus aureus (MSSA): yes
[7]
  Expected efficacy against Staphylococcus epidermidis: yes
Streptococcus agalactiae
  Expected efficacy against Streptococcus agalactiae: yes
Streptococcus pyogenes
  Expected efficacy against Streptococcus pyogenes: yes
[8]
  Expected efficacy against Viridans group streptococci: yes
